The assay concerns MDA-MB-468 breast. As to the kind of experiment: inhibition of tumour cell growth, NCI panel, 48 h.

Several values for one entry are separate records, joined by “and”; a condition that tells them apart may be missing. Equal values may be shown once.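 Cultured in 96-well plates, cells were exposed to test compound for 48 hours across five concentrations. At the GI50, growth is halved. TGI denotes the concentration required for complete inhibition of growth.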 *1 amine or outer side, *2 acyl side, *3 side chain or, on linkers, in order; H or OH if unused. Where a SMILES comes first, the peptide text is derived from it. Bridges are numbered along the chain shown (N, C = ends). [ ]: non-standard residue; d: D form. The star is where a group is joined. X19 = O=C([C@H](N[*:1])c1ccc(O[C@H]2O[C@@H](CO)[C@@H](O)[C@@H](O)[C@H]2O[C@@H]2O[C@H](CO)[C@H](O)[C@H](O)[C@@H]2O)cc1)[*:2]; X18 = NC(=O)[C@@H](O[*:3])[C@H](N[*:1])C(=O)[*:2]; X20 = O=C([C@H](N[*:1])c1ccc(O)c(Cl)c1)[*:2]; d(aThr) = C[C@@H](O)[C@@H](N)C(=O)O; dHpg = N[C@@H](C(=O)O)c1ccc(O)cc1; X17 = CC(C)C/C=C/C=C/C(=O)*; dOrn = NCCC[C@@H](N)C(=O)O

For `Cc1nn(-c2ccccc2)c2ncnc(N/N=C/c3ccccc3O)c12`, the GI50 is 1560 nM and the TGI amounted to 8590 nM.
With `CC(C)C/C=C/C=C/C(=O)N[C@@H](CC(N)=O)C(=O)N[C@@H]1C(=O)N[C@H](c2ccc(O)cc2)C(=O)N[C@H](CCCN)C(=O)N[C@H]([C@@H](C)O)C(=O)N[C@H](c2ccc(O)cc2)C(=O)N[C@H](c2ccc(O)cc2)C(=O)N[C@H]([C@H](C)O)C(=O)N[C@H](Cc2ccccc2)C(=O)N[C@H](CCCN)C(=O)N[C@H](c2ccc(O[C@H]3O[C@@H](CO)[C@@H](O)[C@@H](O)[C@H]3O[C@@H]3O[C@H](CO)[C@H](O)[C@H](O)[C@@H]3O)cc2)C(=O)N[C@H]([C@H](C)O)C(=O)N[C@H](c2ccc(O)cc2)C(=O)NCC(=O)N[C@H](CC(C)C)C(=O)N[C@H](C)C(=O)N[C@H](c2ccc(O)c(Cl)c2)C(=O)O[C@@H]1C(N)=O` (X17-N[X18][dHpg][dOrn][d(aThr)][dHpg][dHpg][dT][dF][dOrn][X19][dT][dHpg]G[dL][dA][X20]; ester 2-C), the GI50 is 19700 nM and the TGI is 56700 nM.
For the molecule `O=C1/C(=C/c2ccccc2Br)COc2ccc(O)c(O)c21`, the GI50 was 1650 nM and the TGI was found to be 3940 nM.
`N/C(=N\c1nc2ccccc2s1)NC(=O)Nc1ccccc1Cl`: the GI50 was 317 nM and the TGI is 5920 nM.
The like results for `O=C(Nc1ccc(Cl)cc1)c1cc2cc(F)ccc2cc1O` were, in that order, 2470 nM and 6170 nM.
On to `O=C1/C(=C/c2ccccc2)CN(CCC(=O)N2C/C(=C\c3ccccc3)C(=O)/C(=C/c3ccccc3)C2)C/C1=C\c1ccccc1`, for which the GI50 is 9330 nM and the TGI came to 42800 nM.
`COc1ccc(Cl)cc1NC(=O)c1c(NC(=O)C(F)(F)C(F)(F)F)sc2c1CCCCC2`: the GI50 was 765 nM and the TGI was determined as 4680 nM.
For `CN(C)CCCN=c1cc2c(=O)n(CCCN(C)C)c(=O)c3c(NCCCN(C)C)cc4c(O)n(CCCN(C)C)c(=O)c1c4c3-2`, the GI50 was 1300 nM and the TGI was found to be 3580 nM.
Turning to `O=C1CCC2=C3C4CCCCC4C(=O)C4CCCC(OC2C1)C34` (centres undefined), the GI50 is 1870 nM and the TGI came to 5200 nM.
Consider `CCCCNC(=O)Oc1ccc2c(=O)c3sc4c(=O)c5ccccc5c(=O)c4c3c(=O)c2c1`, for which the GI50 is 1450 nM and the TGI was 3390 nM.
Consider `C=C1SC(=Nc2ccccc2Cl)N(C(=O)c2sc3ccccc3c2Cl)C1(C)C`, for which the GI50 was 12600 nM and the TGI is above 100000 nM.
As for `COC(=O)c1cc2c3c(cc(O)c2[nH]1)N(C(=O)C1Cc2cc(OC)c(OC)c(OC)c2N1)CC3CCl` (centres undefined), the GI50 was below 10 nM and the TGI was below 10 nM.
For `CCn1cc(C(=O)N/N=C/c2cccc(F)c2)c(=O)c2cc(F)c(N3CCNC(C)C3)c(F)c21` (centres undefined), the GI50 is 1640 nM and the TGI stood at 3180 nM.
Turning to `CCC1CCCCN1C(=S)N/N=C(\C)c1ccccn1` (centres undefined), the GI50 is below 15.3 nM and the TGI stood at 503 nM.
For `C[C@@H](Oc1cc(NS(=O)(=O)N2CCC2)nc(SCc2cccc(F)c2F)n1)[C@@H](O)CO`, the GI50 was above 100000 nM and the TGI was above 100000 nM.
For `COc1cc(/C=C2\CN(S(=O)(=O)c3ccc(C)cc3)C/C(=C\c3cc(CN4CCCCC4)c(O)c(OC)c3)C2=O)cc(CN2CCCCC2)c1O`, the GI50 is 1940 nM and the TGI is 3990 nM.
For the molecule `Cc1cccc2c1O/C(=C\c1ncc([N+](=O)[O-])n1C)C2=O`, the GI50 was 1410 nM and the TGI was 4010 nM.
The corresponding values for `O=C(O[C@H]1CN[C@H](C#Cc2cc3ncnc(Nc4ccc(OCc5cccc(F)c5)c(Cl)c4)c3s2)C1)N1CCOCC1` are 391 nM and 4780 nM.
Regarding `O=C1/C=C/[C@@H](O)[C@@H]2C[C@@H](O)C[C@H]2/C=C/CCC[C@H](CO)O1`, the GI50 was 419 nM and the TGI was determined as 2770 nM.
Turning to `COc1cc2c(Nc3ccc(Br)cc3F)ncnc2cc1OCC1CCN(C)CC1`, the GI50 is 455 nM and 452 nM; the TGI was 2570 nM and 3530 nM.
In the case of `CC(C)(C)N1CC(OC(N)=O)C1`, the GI50 was above 100000 nM and the TGI was above 100000 nM.
For `COc1cc(C)[nH]c(=O)c1CN1CCc2c(Cl)cc([C@H](OC)C3COC3)c(Cl)c2C1=O`, the GI50 is above 100000 nM and the TGI is above 100000 nM.
As for `C#Cc1cccc(Nc2ncnc3ccc(-c4cnc(Cl)c(NS(C)(=O)=O)c4)cc23)c1`, the GI50 was 178 nM and the TGI stood at 880 nM.
On to `COc1ccc([C@@H]2[C@@H](O)C(=O)N2c2cc(OC)c(OC)c(OC)c2)cc1`, for which the GI50 is 24.3 nM and the TGI is 67.7 nM.
Consider `CC1OC(O[C@H]2/C=C/C=C/C=C/C=C/C=C/C=C/C=C/[C@H](C)[C@@H](O)[C@@H](C)[C@H](C)OC(=O)C[C@H](O)C[C@H](O)CC[C@@H](O)[C@H](O)C[C@H](O)C[C@]3(O)C[C@H](O)[C@@H](C(=O)O)[C@H](C2)O3)C(O)C(N)C1O` (some centres undefined), for which the GI50 is 53300 nM and the TGI is above 100000 nM.
The like results for `O=c1ccccc(-c2ccc(-c3ccco3)cc2)c1O` were, in that order, 320 nM and 3300 nM.
For the molecule `Oc1ccc2ccccc2c1N=Nc1ccccn1`, the GI50 was 1410 nM and the TGI worked out at 4890 nM.
Turning to `O=C(NC1CCN(Cc2ccccc2)CC1)c1cc(C(=O)NC2CCN(Cc3ccccc3)CC2)cc(C(=O)NC2CCN(Cc3ccccc3)CC2)c1`, the GI50 is 866 nM and the TGI amounted to 1890 nM.
Turning to `O=S(=O)(NCCCNc1cc(-c2cn(-c3ccccc3)nc2-c2cccc(O)c2)ccn1)c1cccc2ccccc12`, the GI50 is 1850 nM and the TGI turned out to be 6010 nM.
The corresponding values for `COc1ccccc1N1CCN(C(=O)c2ccc(NS(=O)(=O)c3cccc4cccnc34)cc2)CC1` are above 28900 nM and above 100000 nM.
In the case of `CCC(c1ccc(OC)cc1)C(CC)c1ccc(O)c(CN2CCCC2)c1` (centres undefined), the GI50 is 1620 nM and the TGI worked out at 3690 nM.
As for `Cc1ccc2c(N/N=C\c3ccco3)cc(C)nc2n1`, the GI50 was 2680 nM and the TGI worked out at 7470 nM.
For `O=C1c2cccc3cc([N+](=O)[O-])cc(c23)C(=O)N1CCN1CCCC1`, the GI50 was 605 nM and the TGI is 2440 nM.
Regarding `COc1ccc(-c2csc(NC(=O)N3CCN(c4cc5c(cc4F)c(=O)c(C(=O)O)cn5C4CC4)CC3)n2)cc1`, the GI50 is 1140 nM and the TGI came to 8130 nM.
Regarding `CNC(=O)c1cncc(/C=C/c2c(C)cccc2C)c1`, the GI50 is above 22700 nM and the TGI is above 25000 nM.
The like results for `COc1cc([C@@H]2c3cc4c(cc3[C@H](OC(C)=O)[C@H]3COC(=O)[C@H]23)OCO4)cc(OC)c1OC` were, in that order, 29.5 nM and above 100000 nM.
Regarding `Cc1cccc2c1NC(=O)[C@@]21[C@H](C(=O)c2ccccc2)[C@]2(C(=O)Nc3ccccc32)[C@H]2CCCN21`, the GI50 was 22300 nM and the TGI is above 100000 nM.
For the molecule `COc1cccc(-c2nc(-c3ccc(NC(=O)c4ccccc4)cc3)[nH]c2-c2ccnc(Br)c2)c1`, the GI50 is 2870 nM and the TGI was above 100000 nM.
The corresponding values for `COc1c(B(O)O)cccc1-c1nc2c(F)cc3[nH]ncc3c2c2c1CCCC2` are 1060 nM and 3690 nM.
With `N#C/C(=C/C=C/c1ccccc1)S(=O)c1ccccc1` (centres undefined), the GI50 was 274 nM and the TGI was 987 nM.
`NC(=O)c1cc(Cl)ccc1NC(=O)c1ccccc1-c1ccccc1`: the GI50 is 448 nM and the TGI amounted to 48700 nM.
As for `Cc1cc(C(NC(=O)CCCCCNc2cccc3c2C(=O)N(C2CCC(=O)NC2=O)C3=O)c2cccnc2)c(O)c2ncccc12` (centres undefined), the GI50 was below 10 nM and the TGI stood at 32.8 nM.
